Measured values as given in ChEMBL document CHEMBL4373743, “Selective apoptosis-inducing activity of synthetic hydrocarbon-stapled SOS1 helix with d-amino acids in H358 cancer cells expressing KRASG12C” (Eur J Med Chem, 2020).
pKd: −log10 of the molar value. Activity calls are given as the source filed them. No cut-off for these calls is given here. Bridge positions count the residues as written; N and C are the ends. Square brackets hold non-standard residues; d marks the D form. Peptide text beside a SMILES is read from it. S5 = C=CCCC[C@](C)(N)C(=O)O

Assays:
GTPase KRas = GTPase KRas (Homo sapiens, UniProt P01116, G12C); experiment: Binding affinity to biotinylated N-terminal His6-tagged recombinant KRAS G12C mutant (unknown origin) by BLI method
Sequence of GTPase KRas (P01116 whole entry G12C): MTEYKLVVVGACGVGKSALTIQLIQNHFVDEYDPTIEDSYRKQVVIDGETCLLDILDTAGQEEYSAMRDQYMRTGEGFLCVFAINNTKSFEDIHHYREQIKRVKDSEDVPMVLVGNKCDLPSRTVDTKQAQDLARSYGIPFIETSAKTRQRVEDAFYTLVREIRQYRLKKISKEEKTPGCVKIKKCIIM

[1] = system: GTPase KRas (Homo sapiens), P01116 [G12C]; experiment: Binding affinity to biotinylated N-terminal His6-tagged recombinant KRAS G12C mutant (unknown origin) assessed as association constant by BLI method
Sequence of GTPase KRas (Homo sapiens), P01116 [G12C] (P01116 whole entry G12C): as above

[2] = system: GTPase KRas (Homo sapiens), P01116 [G12C]; experiment: Binding affinity to biotinylated N-terminal His6-tagged recombinant KRAS G12C mutant (unknown origin) assessed as dissociation constant by BLI method
NCI-H358 = experiment: Antiproliferative activity against human NCI-H358 cells harboring KRAS G12C mutant incubated for 24 hrs by MTT assay; type: functional, cell-based
A549 = experiment: Antiproliferative activity against human A549 cells harboring KRAS G12S mutant at 0.37 to 10 uM incubated for 24 hrs by MTT assay; type: functional, cell-based
[3] = system: GTPase KRas (Homo sapiens), P01116 [G12C]; experiment: Inhibition of mant-GDP bound N-terminal His6-tagged recombinant KRAS G12C mutant (unknown origin) by fluorescence based assay

Row | pKd (GTPase KRas) | Ka [1] [×10³ /M.s] | Kdiss [2] | inhibition [3] | Compound | Activity (NCI-H358) | Activity (A549)
1 | 5.49 | 3.73 | 1.19 ×10⁻² /s |  | CC[C@H](C)[C@H](NC(=O)CNC(=O)[C@H](Cc1ccccc1)NC(=O)[C@H](Cc1ccccc1)NC(=O)[C@H](CCCNC(=N)N)NC(=O)[C@H](CCCNC(=N)N)NC(C)=O)C(=O)N[C@@]1(C)CCC/C=C\CCC[C@@](C)(C(=O)N[C@@H](CC(C)C)C(=O)N[C@@H](CCCCN)C(=O)N[C@H](C(=O)N[C@@H](CCC(=O)O)C(=O)N[C@@H](CCC(=O)O)C(=O)NCC(=O)N[C@@H](CC(N)=O)C(=O)O)[C@@H](C)O)NC(=O)[C@H](CC(N)=O)NC(=O)[C@H]([C@@H](C)O)NC(=O)[C@H](CC(=O)O)NC(=O)[C@H](CC(C)C)NC1=O (Ac-RRFFGI[S5]LDTN[S5]LKTEEGN-OH; staple (Z) 7-12) |  | 
2 | 4.58 | 6.65 | 1.73 ×10⁻¹ /s |  | CC[C@H](C)[C@H](NC(=O)CNC(=O)[C@H](Cc1ccccc1)NC(=O)[C@H](Cc1ccccc1)NC(=O)[C@H](CCCNC(=N)N)NC(=O)[C@H](CCCNC(=N)N)NC(C)=O)C(=O)N[C@@]1(C)CCC/C=C\CCC[C@@](C)(C(=O)N[C@@H](CC(C)C)C(=O)N[C@@H](CCCCN)C(=O)N[C@H](C(=O)N[C@@H](CCC(=O)O)C(=O)N[C@@H](CCC(=O)O)C(=O)NCC(=O)N[C@@H](CC(N)=O)C(=O)O)[C@@H](C)O)NC(=O)[C@H](CC(N)=O)NC(=O)[C@H]([C@@H](C)O)NC(=O)[C@H](CC(C)C)NC(=O)[C@H](CC(=O)O)NC1=O (Ac-RRFFGI[S5]DLTN[S5]LKTEEGN-OH; staple (Z) 7-12) |  | 
3 | 4.32 | 2.44 | 1.17 ×10⁻¹ /s | Dose-dependent effect | CC[C@H](C)[C@H](NC(=O)CNC(=O)[C@H](Cc1ccccc1)NC(=O)[C@H](Cc1ccccc1)NC(=O)[C@H](CCCNC(=N)N)NC(=O)[C@H](CCCNC(=N)N)NC(C)=O)C(=O)N[C@@]1(C)CCC/C=C\CCC[C@@](C)(C(=O)N[C@@H](CC(C)C)C(=O)N[C@@H](CCCCN)C(=O)N[C@H](C(=O)N[C@@H](CCC(=O)O)C(=O)N[C@@H](CCC(=O)O)C(=O)NCC(=O)N[C@@H](CC(N)=O)C(=O)O)[C@@H](C)O)NC(=O)[C@H](CC(N)=O)NC(=O)[C@H]([C@@H](C)O)NC(=O)[C@H](CC(C)C)NC1=O | Dose-dependent effect | inactive
4 | 5.06 | 4.62 | 4.07 ×10⁻² /s |  | CC[C@H](C)[C@H](NC(=O)CNC(=O)[C@H](Cc1ccccc1)NC(=O)[C@H](Cc1ccccc1)NC(=O)[C@H](CCCNC(=N)N)NC(=O)[C@H](CCCNC(=N)N)NC(C)=O)C(=O)N[C@@]1(C)CCC/C=C\CCC[C@@](C)(C(=O)N[C@@H](CC(C)C)C(=O)N[C@@H](CCCCN)C(=O)N[C@H](C(=O)N[C@@H](CCC(=O)O)C(=O)N[C@@H](CCC(=O)O)C(=O)NCC(=O)N[C@@H](CC(N)=O)C(=O)O)[C@@H](C)O)NC(=O)[C@H](CC(N)=O)NC(=O)[C@H](CC(=O)O)NC(=O)[C@H]([C@@H](C)O)NC(=O)[C@H](CC(C)C)NC1=O (Ac-RRFFGI[S5]LTDN[S5]LKTEEGN-OH; staple (Z) 7-12) |  | 
